From US9809623B2, “α4β7 peptide monomer and dimer antagonists” (Protagonist Therapeutics, Inc., priority 2014, dated 2017) come the findings set out here.

pIC50: −log10 of the molar value. Bridge positions count the residues as written; N and C are the ends. Square brackets hold non-standard residues; d marks the D form. Peptide text beside a SMILES is read from it. 2Nal = N[C@@H](Cc1ccc2ccccc2c1)C(=O)O; NMeR = CN[C@@H](CCCNC(=N)N)C(=O)O; Cha = N[C@@H](CC1CCCCC1)C(=O)O; Pen = CC(C)(S)[C@H](N)C(=O)O; hLeu = CC(C)CC[C@H](N)C(=O)O

Sequence of α4β7 (P13612 34-1032): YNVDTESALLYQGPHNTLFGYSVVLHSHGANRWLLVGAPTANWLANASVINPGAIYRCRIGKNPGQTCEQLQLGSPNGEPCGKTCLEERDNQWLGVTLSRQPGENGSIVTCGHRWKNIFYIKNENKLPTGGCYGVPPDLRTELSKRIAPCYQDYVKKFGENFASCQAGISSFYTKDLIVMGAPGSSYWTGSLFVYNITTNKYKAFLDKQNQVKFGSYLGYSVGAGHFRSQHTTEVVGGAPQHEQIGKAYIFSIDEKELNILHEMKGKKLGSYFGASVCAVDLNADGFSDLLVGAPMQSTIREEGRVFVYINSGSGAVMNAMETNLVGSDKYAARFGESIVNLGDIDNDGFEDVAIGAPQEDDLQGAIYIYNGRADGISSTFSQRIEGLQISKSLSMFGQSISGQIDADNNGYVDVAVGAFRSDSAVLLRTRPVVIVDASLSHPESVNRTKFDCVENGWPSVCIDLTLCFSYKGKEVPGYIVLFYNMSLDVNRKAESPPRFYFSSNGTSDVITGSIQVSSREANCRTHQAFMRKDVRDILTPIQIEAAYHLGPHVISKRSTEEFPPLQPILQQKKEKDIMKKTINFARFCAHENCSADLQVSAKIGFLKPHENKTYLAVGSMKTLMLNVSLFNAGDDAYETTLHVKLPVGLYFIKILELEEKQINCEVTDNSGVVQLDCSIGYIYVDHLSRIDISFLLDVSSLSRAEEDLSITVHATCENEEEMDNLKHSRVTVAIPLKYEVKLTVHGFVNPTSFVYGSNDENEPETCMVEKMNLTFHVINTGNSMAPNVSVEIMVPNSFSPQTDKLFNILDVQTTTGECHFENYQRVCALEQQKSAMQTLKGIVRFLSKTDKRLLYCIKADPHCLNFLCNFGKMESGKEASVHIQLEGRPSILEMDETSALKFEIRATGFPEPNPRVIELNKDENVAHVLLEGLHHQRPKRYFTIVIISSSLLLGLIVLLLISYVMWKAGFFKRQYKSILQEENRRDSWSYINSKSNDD
Sequence of α4β7 (P26010 20-798): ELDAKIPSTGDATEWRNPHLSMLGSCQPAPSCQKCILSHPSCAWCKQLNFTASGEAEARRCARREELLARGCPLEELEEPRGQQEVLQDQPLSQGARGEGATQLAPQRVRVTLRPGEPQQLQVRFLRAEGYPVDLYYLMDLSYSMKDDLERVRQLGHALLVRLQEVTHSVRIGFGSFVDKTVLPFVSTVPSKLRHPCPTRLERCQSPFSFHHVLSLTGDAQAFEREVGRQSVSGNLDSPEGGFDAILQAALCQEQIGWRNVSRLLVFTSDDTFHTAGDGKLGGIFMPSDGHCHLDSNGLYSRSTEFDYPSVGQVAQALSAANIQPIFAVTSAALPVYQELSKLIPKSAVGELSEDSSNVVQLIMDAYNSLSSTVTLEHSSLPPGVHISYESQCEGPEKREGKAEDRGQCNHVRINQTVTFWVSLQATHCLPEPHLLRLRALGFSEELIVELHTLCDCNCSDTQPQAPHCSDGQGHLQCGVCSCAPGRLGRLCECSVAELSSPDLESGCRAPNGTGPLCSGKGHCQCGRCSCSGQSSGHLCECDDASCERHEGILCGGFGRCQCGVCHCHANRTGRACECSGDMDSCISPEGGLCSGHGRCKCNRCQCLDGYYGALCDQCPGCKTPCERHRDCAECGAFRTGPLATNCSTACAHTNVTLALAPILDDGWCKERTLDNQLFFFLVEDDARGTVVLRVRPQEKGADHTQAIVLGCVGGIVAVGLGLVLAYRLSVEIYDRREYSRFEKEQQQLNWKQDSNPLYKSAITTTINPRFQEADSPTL

In the experiment the target is α4β7 (Homo sapiens, UniProt P13612+P26010). Briefly: α4β7-MAdCAM Cell Adhesion Assay (RPMI 8866 human cells). The class given is cell-based. Details: host or cells: RPMI 8866 human B lymphoblastoid cells. The settings on record: Table 3-B, Potency (α4β7); range classes; read-out: α4β7 cell (Hu) IC50. The method in brief:
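Washed RPMI 8866 cells (200,000/well) in DMEM with 0.1% BSA, 10 mM HEPES pH 7, 1 mM MnCl2 adhered to rh MAdCAM-1/Fc-coated wells with serially diluted peptides, 30-45 min at 37 °C. After three washes, bound cells quantified by MTT, A570, cell-free background subtracted for dose response.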
For the molecule `CC(=O)N[C@@H]1C(=O)N(C)[C@@H](CCCNC(=N)N)C(=O)N[C@@H](CO)C(=O)N[C@@H](CC(=O)O)C(=O)N[C@@H](C(C)C)C(=O)N[C@@H](CC(C)C)C(=O)N[C@H](C(=O)N[C@@H](Cc2ccc3ccccc3c2)C(=O)N[C@H](CCC(=O)O)C(N)=O)C(C)(C)SSC1(C)C` [compound 156] (Ac-[Pen][NMeR]SDVL[Pen][2Nal][dE]-NH2; disulfide 1-7), the pIC50 was 6.30 to 7.00.
For `CC(=O)N[C@@H]1C(=O)N(C)[C@@H](CCCNC(=N)N)C(=O)N[C@@H](CO)C(=O)N[C@@H](CC(=O)O)C(=O)N[C@@H](Cc2ccccc2)C(=O)N[C@@H](CC(C)C)C(=O)N[C@H](C(=O)N[C@@H](Cc2ccc3ccccc3c2)C(=O)N[C@H](CCC(=O)O)C(N)=O)C(C)(C)SSC1(C)C` [compound 157] (Ac-[Pen][NMeR]SDFL[Pen][2Nal][dE]-NH2; disulfide 1-7) the value was 5.00 to 6.00; for `CC(=O)N[C@@H]1C(=O)N(C)[C@@H](CCCNC(=N)N)C(=O)N[C@@H](CO)C(=O)N[C@@H](CC(=O)O)C(=O)N[C@@H](CC2CCCCC2)C(=O)N[C@@H](CC(C)C)C(=O)N[C@H](C(=O)N[C@@H](Cc2ccc3ccccc3c2)C(=O)N[C@H](CCC(=O)O)C(N)=O)C(C)(C)SSC1(C)C` [compound 158] (Ac-[Pen][NMeR]SD[Cha]L[Pen][2Nal][dE]-NH2; disulfide 1-7), 5.00 to 6.00; for `CC(=O)N[C@@H]1C(=O)N(C)[C@@H](CCCNC(=N)N)C(=O)N[C@@H](CO)C(=O)N[C@@H](CC(=O)O)C(=O)N[C@@H](CC(C)C)C(=O)N[C@@H](CC(C)C)C(=O)N[C@H](C(=O)N[C@@H](Cc2ccc3ccccc3c2)C(=O)N[C@H](CCC(=O)O)C(N)=O)C(C)(C)SSC1(C)C` [compound 159] (Ac-[Pen][NMeR]SDLL[Pen][2Nal][dE]-NH2; disulfide 1-7), 5.00 to 6.00.
For `CC[C@H](C)[C@@H]1NC(=O)[C@H](CC(=O)O)NC(=O)[C@H](CO)NC(=O)[C@H](CCCNC(=N)N)N(C)C(=O)[C@@H](NC(C)=O)C(C)(C)SSC(C)(C)[C@@H](C(=O)N[C@@H](Cc2ccc3ccccc3c2)C(=O)N[C@H](CCC(=O)O)C(N)=O)NC(=O)[C@H](CC(C)C)NC1=O` [compound 160] (Ac-[Pen][NMeR]SDIL[Pen][2Nal][dE]-NH2; disulfide 1-7) the value was 5.00 to 6.00; for `CC(=O)N[C@@H]1C(=O)N(C)[C@@H](CCCNC(=N)N)C(=O)N[C@@H](CO)C(=O)N[C@@H](CC(=O)O)C(=O)N[C@@H](CCC(C)C)C(=O)N[C@@H](CC(C)C)C(=O)N[C@H](C(=O)N[C@@H](Cc2ccc3ccccc3c2)C(=O)N[C@H](CCC(=O)O)C(N)=O)C(C)(C)SSC1(C)C` [compound 161] (Ac-[Pen][NMeR]SD[hLeu]L[Pen][2Nal][dE]-NH2; disulfide 1-7), 5.00 to 6.00; for `CC(=O)N[C@@H]1C(=O)N(C)[C@@H](CCCNC(=N)N)C(=O)N[C@@H](CO)C(=O)N[C@@H](CC(=O)O)C(=O)N[C@@H]([C@@H](C)O)C(=O)N[C@@H](Cc2ccccc2)C(=O)N[C@H](C(=O)N[C@@H](Cc2ccc3ccccc3c2)C(=O)N[C@H](CCC(=O)O)C(N)=O)C(C)(C)SSC1(C)C` [compound 162] (Ac-[Pen][NMeR]SDTF[Pen][2Nal][dE]-NH2; disulfide 1-7), 5.00 to 6.00.
`CC(=O)N[C@@H]1C(=O)N(C)[C@@H](CCCNC(=N)N)C(=O)N[C@@H](CO)C(=O)N[C@@H](CC(=O)O)C(=O)N[C@@H]([C@@H](C)O)C(=O)N[C@@H](CCC(N)=O)C(=O)N[C@H](C(=O)N[C@@H](Cc2ccc3ccccc3c2)C(=O)N[C@H](CCC(=O)O)C(N)=O)C(C)(C)SSC1(C)C` [compound 163] (Ac-[Pen][NMeR]SDTQ[Pen][2Nal][dE]-NH2; disulfide 1-7): the pIC50 is 5.00 to 6.00.
For `CC(=O)N[C@@H]1C(=O)N(C)[C@@H](CCCNC(=N)N)C(=O)N[C@@H](CO)C(=O)N[C@@H](CC(=O)O)C(=O)N[C@@H]([C@@H](C)O)C(=O)N[C@@H](Cc2ccc(O)cc2)C(=O)N[C@H](C(=O)N[C@@H](Cc2ccc3ccccc3c2)C(=O)N[C@H](CCC(=O)O)C(N)=O)C(C)(C)SSC1(C)C` [compound 164] (Ac-[Pen][NMeR]SDTY[Pen][2Nal][dE]-NH2; disulfide 1-7), the negative logarithm of the IC50 (pIC50) was 5.00 to 6.00.

Broadly, the pIC50 is −log10 of the IC50, conventionally taken in molar units.
